Assay [1] addresses Beta Secretase enzyme (BACE) (Homo sapiens (Human), UniProt P56817). Put plainly: In vitro enzymatic BACE FRET assay. It counts as biochemical. Particulars: read-out: BACE1 Enzyme assay IC50.
The target of assay [2] is Cathepsin D (Cat D) (Homo sapiens (Human), UniProt P07339). The experiment in a line: In vitro enzymatic Cathepsin D (Cat D) FRET assay. It counts as biochemical. Particulars: read-out: CatD IC50.

Broadly, the IC50 is the concentration that gives 50% inhibition.

Chain of Beta Secretase enzyme (BACE) (P56817 46-501): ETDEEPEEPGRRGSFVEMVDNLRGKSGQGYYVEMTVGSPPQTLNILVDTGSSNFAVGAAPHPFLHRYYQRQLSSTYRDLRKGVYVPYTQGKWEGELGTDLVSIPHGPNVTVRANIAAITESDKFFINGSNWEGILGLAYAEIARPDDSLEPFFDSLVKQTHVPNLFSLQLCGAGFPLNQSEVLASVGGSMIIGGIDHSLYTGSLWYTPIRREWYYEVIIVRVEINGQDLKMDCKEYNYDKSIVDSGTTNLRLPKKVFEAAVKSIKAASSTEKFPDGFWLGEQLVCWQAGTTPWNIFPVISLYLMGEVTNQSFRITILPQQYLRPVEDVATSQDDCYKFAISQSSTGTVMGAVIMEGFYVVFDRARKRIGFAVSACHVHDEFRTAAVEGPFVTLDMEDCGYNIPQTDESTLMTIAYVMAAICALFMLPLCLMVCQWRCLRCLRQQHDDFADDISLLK
Chain of Cathepsin D (Cat D) (P07339 65-412, species assumed): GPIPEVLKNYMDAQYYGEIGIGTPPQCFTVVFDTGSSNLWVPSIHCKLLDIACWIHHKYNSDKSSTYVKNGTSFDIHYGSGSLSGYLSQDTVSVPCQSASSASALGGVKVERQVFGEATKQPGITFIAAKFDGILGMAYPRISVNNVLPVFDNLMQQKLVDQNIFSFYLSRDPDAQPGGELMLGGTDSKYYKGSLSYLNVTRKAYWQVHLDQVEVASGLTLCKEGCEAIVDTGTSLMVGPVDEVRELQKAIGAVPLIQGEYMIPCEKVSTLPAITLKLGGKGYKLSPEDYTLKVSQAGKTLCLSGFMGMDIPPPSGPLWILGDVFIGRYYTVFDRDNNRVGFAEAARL

As for `NC1=N[C@@](c2cc(N[C@@H]3CCc4cc(Br)ccc43)ccc2F)(C(F)F)[C@H]2C[C@H]2O1.NC1=N[C@@](c2cc(N[C@H]3CCc4cc(Br)ccc43)ccc2F)(C(F)F)[C@H]2C[C@H]2O1` (mixture of isomers) [Example 384, (1R,5S,6R)-5-(5-(((R)-5-bromo-2,3-dihydro-1H-inden-1-yl)amino)-2-fluorophenyl)-5-(difluoromethyl)-2-oxa-4-azabicyclo[4.1.0]hept-3-en-3-amine and (1R,5S,6R)-5-(5-(((S)-5-bromo-2,3-dihydro-1H-inden-1-yl)amino)-2-fluorophenyl)-5-(difluoromethyl)-2-oxa-4-azabicyclo[4.1.0]hept-3-en-3-amine], the 50% inhibitory concentration (IC50) is 0.315 µM in assay [1] and 82.5 µM in assay [2].

Regarding `NC1=N[C@@](c2cc(N[C@H](c3ccc(Cl)cn3)C(F)(F)F)ccc2F)(C(F)F)[C@H]2C[C@H]2O1` (mixture of isomers) [Example 422, (1R,5S,6R)-5-(5-(((R)-1-(5-chloropyridin-2-yl)-2,2,2-trifluoroethyl)amino)-2-fluorophenyl)-5-(difluoromethyl)-2-oxa-4-azabicyclo[4.1.0]hept-3-en-3-amine and (1R,5S,6R)-5-(5-(((S)-1-(5-chloropyridin-2-yl)-2,2,2-trifluoroethyl)amino-2-fluorophenyl)-5-(difluoromethyl)-2-oxa-4-azabicyclo[4.1.0]hept-3-en-3-amine], the IC50 in assay [1] is 5.25 µM; in assay [2], 68.2 µM.

As to `Cc1cc(C#N)cnc1C(=O)Nc1cc(F)c(Cl)c([C@]2(CF)N=C(N)O[C@H]3C[C@H]32)c1` (racemic) [Example 137, N-(3-((1R/S,5S/R,6R/S)-3-amino-5-(fluoromethyl)-2-oxa-4-azabicyclo[4.1.0]hept-3-en-5-yl)-4-chloro-5-fluorophenyl)-5-cyano-3-methylpicolinamide], the half-maximal inhibitory concentration (IC50) in assay [1] was determined as 0.0448 µM; in assay [2], 539 µM.

On to `CC#CCOc1cnc(C(=O)Nc2ccc(Cl)c([C@]3(C(F)F)N=C(N)O[C@H]4C[C@H]43)c2)cn1` (racemic) [Example 210, N-(3-([1(R,S),5(S,R),6(R,S)]-3-amino-5-(difluoromethyl)-2-oxa-4-azabicyclo[4.1.0]hept-3-en-5-yl)-4-chlorophenyl)-5-(but-2-yn-1-yloxy)pyrazine-2-carboxamide], for which the results for the IC50 in assay [1] and in assay [2] were 0.0039 µM and 569 µM, respectively.

Take `C#CCOc1cnc(C(=O)Nc2ccc(Cl)c([C@]3(C(F)F)N=C(N)O[C@H]4C[C@H]43)c2)cn1` (racemic) [Example 219, N-(3-((1(S,R),5(R,S),6(S,R))-3-amino-5-(difluoromethyl)-2-oxa-4-azabicyclo[4.1.0]hept-3-en-5-yl)-4-chlorophenyl)-5-(prop-2-yn-1-yloxy)pyrazine-2-carboxamide]: the figures for the IC50 in assay [1] and in assay [2] were 0.0063 µM and 65.8 µM, respectively.

Turning to `NC1=N[C@](c2cc(NC(=O)c3nn(C(F)F)cc3Cl)ccc2Cl)(C(F)F)[C@@H]2C[C@@H]2O1` (racemic) [Example 220, N-(3-((1(R,S),5(S,R),6(R,S))-3-amino-5-(difluoromethyl)-2-oxa-4-azabicyclo[4.1.0]hept-3-en-5-yl)-4-chlorophenyl)-4-chloro-1-(difluoromethyl)-1H-pyrazole-3-carboxamide], the IC50 stood at 0.0188 µM in assay [1] and 691 µM in assay [2].

Take `NC1=N[C@](CF)(c2cccc(NC(=O)c3ccc(Cl)cn3)c2)[C@H]2C[C@H]2O1` (racemic) [Example 423, N-(3-(((1R,S),(5S,R),(6R,S))-3-amino-5-(fluoromethyl)-2-oxa-4-azabicyclo[4.1.0]hept-3-en-5-yl)phenyl)-5-chloropicolinamide]: the concentration for half-maximal inhibition (IC50) turned out to be 0.396 µM in assay [1] and 592 µM in assay [2].

On to `NC1=N[C@@](c2cc(N[C@@H]3CCc4cc(Br)cnc43)ccc2F)(C(F)F)[C@H]2C[C@H]2O1` (single isomer, unassigned) [Example 380, (1R,5S,6R)-5-(5-(((R)-3-bromo-6,7-dihydro-5H-cyclopenta[b]pyridin-7-yl)amino)-2-fluorophenyl)-5-(difluoromethyl)-2-oxa-4-azabicyclo[4.1.0]hept-3-en-3-amine or (1R,5S,6R)-5-(5-(((S)-3-bromo-6,7-dihydro-5H-cyclopenta[b]pyridin-7-yl)amino)-2-fluorophenyl)-5-(difluoromethyl)-2-oxa-4-azabicyclo[4.1.0]hept-3-en-3-amine], for which the results for the IC50 in assay [1] and in assay [2] were 0.143 µM and 336 µM, respectively.

As for `NC1=N[C@@](c2cc(N[C@H]3CCc4cc(Br)cnc43)ccc2F)(C(F)F)[C@H]2C[C@H]2O1` (single isomer, unassigned) [Example 381, (1R,5S,6R)-5-(5-(((S)-3-bromo-6,7-dihydro-5H-cyclopenta[b]pyridin-7-yl)amino)-2-fluorophenyl)-5-(difluoromethyl)-2-oxa-4-azabicyclo[4.1.0]hept-3-en-3-amine or (1R,5S,6R)-5-(5-(((R)-3-bromo-6,7-dihydro-5H-cyclopenta[b]pyridin-7-yl)amino)-2-fluorophenyl)-5-(difluoromethyl)-2-oxa-4-azabicyclo[4.1.0]hept-3-en-3-amine], the half-inhibitory concentration (IC50) in assay [1] was 3.45 µM; in assay [2], 83.3 µM.

On to `C#CCOc1cnc(C(=O)Nc2cc(F)c(F)c([C@@]3(C(F)F)N=C(N)O[C@@H]4C[C@@H]43)c2)cn1` [Example 111, N-(3-((1R,5S,6R)-3-amino-5-(difluoromethyl)-2-oxa-4-azabicyclo[4.1.0]hept-3-en-5-yl)-4,5-difluorophenyl)-5-(prop-2-yn-1-yloxy)pyrazine-2-carboxamide], for which the IC50 in assay [1] was found to be 6.5 µM; in assay [2], 1000 µM.

As for `C#CCOc1cnc(C(=O)Nc2cc(F)c(F)c([C@@]3(C(F)F)N=C(N)O[C@@H]4C[C@@H]43)c2)cn1` [Example 115, N-(3-((1R,5S,6R)-3-amino-5-(difluoromethyl)-2-oxa-4-azabicyclo[4.1.0]hept-3-en-5-yl)-4,5-difluorophenyl)-5-(prop-2-yn-1-yloxy)pyrazine-2-carboxamide], the IC50 in assay [1] came to 0.0021 µM; in assay [2] it was 42.5 µM.

Turning to `Cc1cc(C#N)cnc1C(=O)Nc1cc(F)c(Cl)c([C@]2(CF)N=C(N)O[C@H]3C[C@H]32)c1` [Example 139, N-(3-((1 S,5R,6S)-3-amino-5-(fluoromethyl)-2-oxa-4-azabicyclo[4.1.0]hept-3-en-5-yl)-4-chloro-5-fluorophenyl)-5-cyano-3-methylpicolinamide], the figures for the concentration for half-maximal inhibition (IC50) in assay [1] and in assay [2] were 14.2 µM and 646 µM, respectively.

`CC#CCOc1cnc(C(=O)Nc2ccc(Cl)c([C@]3(C(F)F)N=C(N)O[C@H]4C[C@H]43)c2)cn1` [Example 216, N-(3-((1S,5R,6S)-3-amino-5-(difluoromethyl)-2-oxa-4-azabicyclo[4.1.0]hept-3-en-5-yl)-4-chlorophenyl)-5-(but-2-yn-1-yloxy)pyrazine-2-carboxamide]: the IC50 in assay [1] amounted to 0.838 µM; in assay [2], 500 µM.

Take `C#CCOc1cnc(C(=O)Nc2ccc(Cl)c([C@]3(C(F)F)N=C(N)O[C@H]4C[C@H]43)c2)cn1` [Example 222, N-(3-((1S,5R,6S)-3-amino-5-(difluoromethyl)-2-oxa-4-azabicyclo[4.1.0]hept-3-en-5-yl)-4-chlorophenyl)-5-(prop-2-yn-1-yloxy)pyrazine-2-carboxamide]: the IC50 stood at 0.701 µM in assay [1] and 493 µM in assay [2].

As to `NC1=N[C@](c2cc(NC(=O)c3nn(C(F)F)cc3Cl)ccc2Cl)(C(F)F)[C@@H]2C[C@@H]2O1` [Example 225, N-(3-((1S,5R,6S)-3-amino-5-(difluoromethyl)-2-oxa-4-azabicyclo[4.1.0]hept-3-en-5-yl)-4-chlorophenyl)-4-chloro-1-(difluoromethyl)-1H-pyrazole-3-carboxamide], the IC50 in assay [1] amounted to 8.27 µM; in assay [2], 1340 µM.

In the case of `NC1=N[C@@](c2cccc(NC(=O)c3ccc(Cl)cn3)c2)(C(F)F)[C@H]2C[C@H]2O1` [Example 263, N-(3-([(1R,S),(5S,R),(6R,S)]-3-amino-5-(difluoromethyl)-2-oxa-4-azabicyclo[4.1.0]hept-3-en-5-yl)phenyl)-5-chloropicolinamide], the IC50 in assay [1] is 0.525 µM; in assay [2] it was 1060 µM.

With `NC1=N[C@@](c2cccc(NC(=O)c3ccc(Cl)cn3)c2)(C(F)F)[C@H]2C[C@H]2O1` [Example 265, N-(3-((1R,5S,6R)-3-amino-5-(difluoromethyl)-2-oxa-4-azabicyclo[4.1.0]hept-3-en-5-yl)phenyl)-5-chloropicolinamide], the IC50 was 0.265 µM in assay [1] and 397 µM in assay [2].

Take `NC1=N[C@@](CF)(c2cc(NC(=O)c3ccc(Cl)cn3)ccc2Cl)[C@@H]2C[C@@H]2O1` [Example 271]: the half-maximal inhibitory concentration (IC50) in assay [1] was 24.1 µM; in assay [2], over 400 µM.

In the case of `NC1=N[C@@](CF)(c2cc(NC(=O)c3ccc(Cl)cn3)ccc2Cl)[C@@H]2CC2O1` (stereo partly drawn) [Example 276, N-(3-(((1R,S), (5S,R), (6R,S))-3-amino-5-(fluoromethyl)-2-oxa-4-azabicyclo[4.1.0]hept-3-en-5-yl)-4-chlorophenyl)-5-chloropicolinamide], the IC50 in assay [1] amounted to 0.138 µM; in assay [2], 918 µM.

For the compound `C[C@@]1(c2nc(NC(=O)c3ccc(C#N)cn3)ccc2F)N=C(N)O[C@H]2C[C@H]21` [Example 325, N-(6-((1S,5R,6S)-3-amino-5-methyl-2-oxa-4-azabicyclo[4.1.0]hept-3-en-5-yl)-5-fluoropyridin-2-yl)-5-cyanopicolinamide], the figures for the IC50 in assay [1] and in assay [2] were over 40 µM and 1290 µM, respectively.

On to `C[C@@]1(c2cc(NC(=O)c3ccc(Cl)cn3)cnc2F)N=C(N)O[C@H]2C[C@H]21` [Example 335, N-(5-((1S,5R,6S)-3-amino-5-methyl-2-oxa-4-azabicyclo[4.1.0]hept-3-en-5-yl)-6-fluoropyridin-3-yl)-5-chloropicolinamide], for which the 50% inhibitory concentration (IC50) was 14.1 µM in assay [1] and over 400 µM in assay [2].

On to `COc1cnc2c(Nc3ccc(F)c([C@@]4(C)N=C(N)O[C@H]5C[C@H]54)c3)nccc2c1` [Example 337, (1S,5S,6S)-5-(2-fluoro-5-((3-methoxy-1,7-naphthyridin-8-yl)amino)phenyl)-5-methyl-2-oxa-4-azabicyclo[4.1.0]hept-3-en-3-amine], for which the IC50 is 3.35 µM in assay [1] and over 400 µM in assay [2].

(Values after patent US9085576B2 (AMGEN INC., priority 2013, dated 2015).)
